According to patent US20260007131A1, “HERBICIDAL COMPOSITION CONTAINING DIFLUOROBUTENOIC ACID AMIDE COMPOUND” (ISHIHARA SANGYO KAISHA, LTD., priority 2022, published 2026):

Legend:
Assay type in all cases: in vivo
[1] = system: barnyardgrass (Echinochloa crus-galli); assay: Herbicidal effect on barnyardgrass (foliar treatment); conditions: Comparative Test 1, barnyardgrass, read-out: Growth inhibition rate
Protocol: (§1) Upland soil was put into a 1/300,000 hectare (ha) pot, seeds of barnyardgrass (Echinochloa crus-galli) were sown, and about 1.5 cm of cover soil was put. The barnyardgrass was grown for 10 days in a greenhouse until it reached a predetermined leaf stage. […] The spray solution was sprayed over the grown barnyardgrass with a small sprayer for foliar treatment.
(§2) Upland soil was put into a 1/300,000 hectare (ha) pot, seeds of barnyardgrass (Echinochloa crus-galli), crabgrass (Digitaria sanguinalis), green foxtail (Setaria viridis), wild oat (Avena fatua), Italian ryegrass (Lolium multiflorum), foxtail shortawn (Alopecurus aequalis), annual bluegrass (Poa annua), redroot pigweed (Amaranthus retroflexus), common chickweed (Stellaria media) common lambsquarters (Chenopodium album) and black nightshade (Solanum nigrum) were sown, and about 1.5 cm of cover soil was put. The plants were grown for 10 days in a greenhouse until they reached a predetermined leaf stage.

[2] = system: crabgrass (Digitaria sanguinalis); assay: Herbicidal effect on crabgrass (foliar treatment); conditions: Comparative Test 1, crabgrass, read-out: Growth inhibition rate
Protocol: as §1, §2

[3] = system: green foxtail (Setaria viridis); assay: Herbicidal effect on green foxtail (foliar treatment); conditions: Comparative Test 1, green foxtail, read-out: Growth inhibition rate
Protocol: as §1, §2

wild oat (Avena fatua) = assay: Herbicidal effect on wild oat (foliar treatment); conditions: Comparative Test 1, wild oat, read-out: Growth inhibition rate
Protocol: as §1, §2

[4] = system: Italian ryegrass (Lolium multiflorum); assay: Herbicidal effect on Italian ryegrass (foliar treatment); conditions: Comparative Test 1, Italian ryegrass, read-out: Growth inhibition rate
Protocol: as §1, §2

[5] = system: foxtail shortawn (Alopecurus aequalis); assay: Herbicidal effect on foxtail shortawn (foliar treatment); conditions: Comparative Test 1, foxtail shortawn, read-out: Growth inhibition rate
Protocol: as §1, §2

[6] = system: annual bluegrass (Poa annua); assay: Herbicidal effect on annual bluegrass (foliar treatment); conditions: Comparative Test 1, annual bluegrass, read-out: Growth inhibition rate
Protocol: as §1, §2

[7] = system: redroot pigweed (Amaranthus retroflexus); assay: Herbicidal effect on redroot pigweed (foliar treatment); conditions: Comparative Test 1, redroot pigweed, read-out: Growth inhibition rate
Protocol: as §1, §2

[8] = system: common chickweed (Stellaria media); assay: Herbicidal effect on common chickweed (foliar treatment); conditions: Comparative Test 1, common chickweed, read-out: Growth inhibition rate
Protocol: as §1, §2

[9] = system: common lambsquarters (Chenopodium album); assay: Herbicidal effect on common lambsquarters (foliar treatment); conditions: Comparative Test 1, common lambsquarters, read-out: Growth inhibition rate
Protocol: as §1, §2

[10] = system: black nightshade (Solanum nigrum); assay: Herbicidal effect on black nightshade (foliar treatment); conditions: Comparative Test 1, black nightshade, read-out: Growth inhibition rate
Protocol: as §1, §2

[11] = system: barnyardgrass (Echinochloa crus-galli); assay: Herbicidal effect on barnyardgrass (soil treatment); conditions: Comparative Test 2, barnyardgrass, read-out: Growth inhibition rate
From the text: (§3) Upland soil was put into a 1/300,000 hectare (ha) pot, seeds of barnyardgrass (Echinochloa crus-galli) were sown, and about 1.5 cm of cover soil was put. […] On the next day after sowing, the spray solution was sprayed with a small sprayer for soil treatment.
(§4) Upland soil was put into a 1/300,000 hectare (ha) pot, seeds of barnyardgrass (Echinochloa crus-galli), crabgrass (Digitaria sanguinalis), green foxtail (Setaria viridis), Italian ryegrass (Lolium multiflorum), redroot pigweed (Amaranthus retroflexus) and common chickweed (Stellaria media) were sown, and about 1.5 cm of cover soil was put.

[12] = system: crabgrass (Digitaria sanguinalis); assay: Herbicidal effect on crabgrass (soil treatment)
From the text: as §3, §4

[13] = system: green foxtail (Setaria viridis); assay: Herbicidal effect on green foxtail (soil treatment); conditions: Comparative Test 2, green foxtail, read-out: Growth inhibition rate
From the text: as §3, §4

[14] = system: Italian ryegrass (Lolium multiflorum); assay: Herbicidal effect on Italian ryegrass (soil treatment)
From the text: as §3, §4

[15] = system: redroot pigweed (Amaranthus retroflexus); assay: Herbicidal effect on redroot pigweed (soil treatment)
From the text: as §3, §4

[16] = system: common chickweed (Stellaria media); assay: Comparative Test 2: herbicidal effect on common chickweed (soil treatment); conditions: Comparative Test 2, common chickweed, read-out: Growth inhibition rate
From the text: Upland soil was put into a 1/300,000 hectare (ha) pot, seeds of barnyardgrass (Echinochloa crus-galli), crabgrass (Digitaria sanguinalis), green foxtail (Setaria viridis), Italian ryegrass (Lolium multiflorum), redroot pigweed (Amaranthus retroflexus) and common chickweed (Stellaria media) were sown, and about 1.5 cm of cover soil was put. The Invention Compound (Aa-1-1, Aa-9-2) or the compound 4b described in Patent Document 1 was weighed to achieve a predetermined active ingredient dose, dissolved in acetone (containing 0.5 vol % of surfactant (TritonX-100: manufactured by Kishida Chemical Co., Ltd.)) or dimethyl sulfoxide and diluted with water (containing 0.1 vol % of agricultural spreader (Surfactant WK: manufactured by MARUWA Biochemical Co., Ltd.) in an amount corresponding to 1,000 liter per hectare, to prepare each spray solution. On the next day after sowing, each spray solution was sprayed with a small sprayer for soil treatment. On the 14th day after the soil treatment, the state of growth of each plant was visually observed, and the herbicidal effect was evaluated in accordance with the growth inhibition rate (%) of from 0 (equivalent to the non-treated area) to 100 (complete kill).

[17] = Comparative Test 2, crabgrass, read-out: Growth inhibition rate
[18] = Comparative Test 2, Italian ryegrass, read-out: Growth inhibition rate
[19] = Comparative Test 2, redroot pigweed, read-out: Growth inhibition rate

SMILES	inhibition at 500 g/ha [1]	inhibition at 1000 g/ha [1]	inhibition at 500 g/ha [2]	inhibition at 1000 g/ha [2]	inhibition at 500 g/ha [3]	inhibition at 1000 g/ha [3]	inhibition at 500 g/ha (wild oat (Avena fatua))	inhibition at 1000 g/ha (wild oat (Avena fatua))	inhibition at 500 g/ha [4]	inhibition at 1000 g/ha [4]	inhibition at 500 g/ha [5]	inhibition at 1000 g/ha [5]	inhibition at 500 g/ha [6]	inhibition at 1000 g/ha [6]	inhibition at 500 g/ha [7]	inhibition at 1000 g/ha [7]	inhibition at 500 g/ha [8]	inhibition at 1000 g/ha [8]	inhibition at 500 g/ha [9]	inhibition at 1000 g/ha [9]	also measured
COC(=O)[C@H]1C[C@H](NC(=O)C(F)(F)/C=C/c2cc(C)cc(F)c2)C1 [Aa-9-2]	≥ 90%	≥ 90%	≥ 90%	≥ 90%	≥ 90%	≥ 90%	≥ 90%	≥ 90%	≥ 90%	≥ 90%	≥ 90%	≥ 90%	≥ 90%	≥ 90%	70 to 90%	70 to 90%	≥ 90%	≥ 90%	70 to 90%	70 to 90%	inhibition at 500 g/ha [10]: 50 to 70%; inhibition at 1000 g/ha [10]: 70 to 90%; inhibition at 500 g/ha [11]: ≥ 90%; inhibition at 1000 g/ha [11]: ≥ 90%; inhibition at 500 g/ha [12, 17]: ≥ 90%; inhibition at 1000 g/ha [12, 17]: ≥ 90%; inhibition at 500 g/ha ([12]; crabgrass, 14th day, read-out: growth inhibition rate): ≥ 70%; inhibition at 500 g/ha [13]: ≥ 90%; inhibition at 1000 g/ha [13]: ≥ 90%; inhibition at 500 g/ha [14, 18]: ≥ 90%; inhibition at 1000 g/ha [14, 18]: ≥ 90%; inhibition at 500 g/ha ([14]; Italian ryegrass, 14th day, read-out: growth inhibition rate): ≥ 70%; inhibition at 500 g/ha [15, 19]: ≥ 90%; inhibition at 1000 g/ha [15, 19]: ≥ 90%; inhibition at 500 g/ha ([15]; redroot pigweed, 14th day, read-out: growth inhibition rate): ≥ 70%; inhibition at 500 g/ha [16]: ≥ 90%; inhibition at 1000 g/ha [16]: ≥ 90%
CN(C(=O)/C=C/c1ccccc1)C1CCC1 [Compound 4b, reference compound]	< 30%	< 30%	< 30%	< 30%	< 30%	< 30%	< 30%	< 30%	< 30%	< 30%	< 30%	< 30%	< 30%	< 30%	< 30%	30 to 50%	< 30%	30 to 50%	< 30%	< 30%	inhibition at 500 g/ha [10]: < 30%; inhibition at 1000 g/ha [10]: ≥ 90%; inhibition at 500 g/ha [11]: < 30%; inhibition at 1000 g/ha [11]: < 30%; inhibition at 500 g/ha [12, 17]: < 30%; inhibition at 1000 g/ha [12, 17]: < 30%; inhibition at 500 g/ha [13]: < 30%; inhibition at 1000 g/ha [13]: < 30%; inhibition at 500 g/ha [14, 18]: < 30%; inhibition at 1000 g/ha [14, 18]: < 30%; inhibition at 500 g/ha [15, 19]: < 30%; inhibition at 1000 g/ha [15, 19]: < 30%; inhibition at 500 g/ha [16]: < 30%; inhibition at 1000 g/ha [16]: < 30%
